Assay results taken from article PMC9396657, “Directed Evolution of (R)-2-Hydroxyglutarate Dehydrogenase Improves 2-Oxoadipate Reduction by 2 Orders of Magnitude” (ACS Synthetic Biology, 2022).

How the values were obtained:
Assay in all cases: NADH oxidation at […] nm, initial rates
Assay type in all cases: biochemical
Hgdh [1] = target: T1, Hgdh (Acidaminococcus fermentans, UniProt D2RJU7, V11K/V11M/A206V/A214V/V312I, form not given); conditions: 0.25 mM NADH, 50 mM phosphate pH 8, 25 °C, apparent, residue 11 contradictory: V11K, A2 is the extra cloning Ala
T1 construct: full length, codon-optimized, expressed in E. coli BL21(DE3) from pET-28b, extra Ala after start Met, C-terminal thrombin site and His tag (kept), homodimer of 75 kDa
T1 sequence (D2RJU7 whole entry, stated change not applied): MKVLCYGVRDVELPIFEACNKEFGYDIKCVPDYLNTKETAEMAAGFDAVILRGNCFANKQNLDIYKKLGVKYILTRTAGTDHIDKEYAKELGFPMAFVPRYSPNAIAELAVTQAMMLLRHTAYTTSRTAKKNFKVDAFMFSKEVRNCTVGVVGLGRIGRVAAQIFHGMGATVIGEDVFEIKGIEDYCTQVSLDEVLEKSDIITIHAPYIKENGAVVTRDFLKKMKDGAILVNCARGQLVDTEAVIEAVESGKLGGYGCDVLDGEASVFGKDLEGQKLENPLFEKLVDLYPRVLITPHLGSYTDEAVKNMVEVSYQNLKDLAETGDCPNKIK

Hgdh [2] = target: T2, Hgdh (Acidaminococcus fermentans, UniProt D2RJU7, V11K/V11M/A206V/A214D/K307I, form not given); conditions: 0.25 mM NADH, 50 mM phosphate pH 8, 25 °C, apparent, residue 11 contradictory: V11K, A2 is the extra cloning Ala
T2 construct: full length, codon-optimized, expressed in E. coli BL21(DE3) from pET-28b, extra Ala after start Met, C-terminal thrombin site and His tag (kept), homodimer of 75 kDa
T2 sequence (D2RJU7 whole entry, stated change not applied): as above

Hgdh [3] = target: T3, Hgdh (Acidaminococcus fermentans, UniProt D2RJU7); conditions: 0.25 mM NADH, 50 mM phosphate pH 8, 25 °C; apparent (Km of NADH not determined)
T3 construct: full length, codon-optimized, expressed in E. coli BL21(DE3) from pET-28b, extra Ala after start Met, C-terminal thrombin site and His tag (kept), homodimer of 75 kDa
T3 sequence (D2RJU7 whole entry): as the sequence (D2RJU7 whole entry, stated change not applied) above

Hgdh [4] = target: T4, Hgdh (Acidaminococcus fermentans, UniProt D2RJU7, V11K/V11M/A206V/A214V/E304K, form not given); conditions: 0.25 mM NADH, 50 mM phosphate pH 8, 25 °C, apparent, residue 11 contradictory: V11K, A2 is the extra cloning Ala
T4 construct: full length, codon-optimized, expressed in E. coli BL21(DE3) from pET-28b, extra Ala after start Met, C-terminal thrombin site and His tag (kept), homodimer of 75 kDa
T4 sequence (D2RJU7 whole entry, stated change not applied): as above

Q: Which results are given for O=C(O)CCCC(=O)C(=O)O [2-oxoadipate]?
A: Km (Hgdh [1]): 9.72 ± 0.67 mM; Km (Hgdh [2]): 3.05 ± 0.24 mM; Km (Hgdh [3]): 2.96 ± 0.24 mM; Km (Hgdh [4]): 4.18 ± 0.2 mM
